Assay results taken from patent US20080188461A1, “Compositions and methods for detecting, preventing and treating seizures and seizure related disorders” (Regents of the University of Michigan, priority 2007, published 2008).

Tested on: seizures
Assay: Reduction in the number of seizures in individuals with multiple daily seizures treated with rapamycin
Type: in vivo, human
Settings: up to 7 mg/day rapamycin in combination with an anti-epileptic drug regimen, treatment 31-32 months
Protocol: In particular, 14 individuals experiencing multiple daily seizures (4 males with diagnosed TSC, 5 females with diagnosed TSC, 1 person with diagnosed Lennox-Gastaut Syndrome, and 4 females with diagnosed Lennox-Gastaut Syndrome) between the ages of 3-18 were administered rapamycin in combination with an anti-epileptic drug regimen. […] Each individual received between up to 7 mg/day of rapamycin. […] The duration of treatment was between 31 and 32 months.

For `CO[C@H]1C[C@@H]2CC[C@@H](C)[C@@](O)(O2)C(=O)C(=O)N2CCCC[C@H]2C(=O)O[C@H]([C@H](C)C[C@@H]2CC[C@@H](O)[C@H](OC)C2)CC(=O)[C@H](C)/C=C(\C)[C@@H](O)[C@@H](OC)C(=O)[C@H](C)C[C@H](C)/C=C/C=C/C=C/1C` [rapamycin, Rapamycin], the reduction in seizures (2 of the individuals diagnosed with TSC) was “greater than 90%”, the reduction in seizures (3 of the individuals diagnosed with Lennox-Gastaut Syndrome) was “greater than 90%” and the reduction in seizures (5 of the individuals diagnosed with Lennox-Gastaut Syndrome) was “greater than 50%”. The reduction in seizures (5 of the individuals diagnosed with TSC) was “greater than 50%”.
